Assay results: PMC4971072, “Chemically Homogenous Compounds with Antagonistic Properties at All α1-Adrenoceptor Subtypes but not β1-Adrenoceptor Attenuate Adrenaline-Induced Arrhythmia in Rats” (Frontiers in Pharmacology, 2016)
Where a name gives a salt, the structure may show the parent alone. Marks after values point to notes of the source that are not given here.

Columns and labels:
[1] = biological target: T1, β1-adrenergic receptor (Rattus norvegicus, UniProt P18090); assay: β1-adrenoceptor radioligand binding assay ([3H]-CGP-12177, rat cerebral cortex); conditions: read-out: Adrenergic receptors Ki β1
T1 construct: The brains were homogenized in 20 volumes of an ice-cold 50 mM Tris-HCl buffer; from tissue; host or cells: rat cerebral cortex membranes
Protocol: The α1- and β1-adrenoceptor radioligand binding assay was performed on rat cerebral cortex. […] The cell pellet was resuspended in the Tris–HCl buffer and centrifuged again. Radioligand binding assays were performed in plates (MultiScreen/Millipore). […] The incubation was terminated by rapid filtration through glass fiber filters (Whatman GF/C) using a vacuum manifold (Millipore). The filters were then washed twice with the assay buffer and placed in scintillation vials with a liquid scintillation cocktail. […] All the assays were made in duplicate and the inhibitory constants (Ki) were estimated.
LO–labeled ligand concentration, KD–dissociation constant of labeled ligand

[2] = biological target: T2, α1A-adrenoceptors (Rattus norvegicus, UniProt P43140); assay: Functional bioassay, isolated rat tail artery, noradrenaline contraction; assay type: biochemical; conditions: noradrenaline as agonist
T2 construct: the middle part of the ventral caudal artery was removed; from tissue; host or cells: isolated rat tail (ventral caudal) artery rings
T2 sequence (P43140 1-466): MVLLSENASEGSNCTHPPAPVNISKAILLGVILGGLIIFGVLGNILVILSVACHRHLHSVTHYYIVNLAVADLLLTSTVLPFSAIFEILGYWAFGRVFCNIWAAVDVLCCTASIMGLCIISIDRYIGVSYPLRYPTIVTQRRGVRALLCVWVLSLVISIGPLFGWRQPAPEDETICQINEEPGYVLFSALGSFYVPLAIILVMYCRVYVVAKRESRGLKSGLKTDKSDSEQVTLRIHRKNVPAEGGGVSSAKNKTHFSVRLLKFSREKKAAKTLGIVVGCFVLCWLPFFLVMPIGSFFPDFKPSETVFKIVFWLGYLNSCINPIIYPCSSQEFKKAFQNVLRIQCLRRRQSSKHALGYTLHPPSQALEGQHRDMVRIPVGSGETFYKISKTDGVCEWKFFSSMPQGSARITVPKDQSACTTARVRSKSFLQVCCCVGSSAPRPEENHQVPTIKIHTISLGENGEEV
Protocol: The isolated artery, cut into ~4 mm long rings, was then horizontally put up between two stainless steel hooks (diameter 0.15 mm). One hook was fastened to the bottom of the chamber and the other to an isometric FDT10-A force displacement transducer (DMT Model 750TOBS, Denmark), linked with Powerlab 4/26 analyzer (ADInstruments), and processed by LabChart 7 software. […] The initial optimal tissues tension was set at 0.75 g. Chloroethylclonidine (3 μM) as the preferential α1B-adrenoreceptor alkylating agent was used during incubation and after 30 min it was completely washed off. Through 100 min of equilibration tissues were stimulated with noradrenaline (1 μM) four times with washing out until the contractile response become constant. Two cumulative concentration-response curves to noradrenaline, at an interval of 60 min, were established on each arterial ring both in the presence and absence of antagonist. The incubation with antagonists went on for 30 min. The experiments were carried out in the constant presence of yohimbine (0.1 μM) and propranolol (1 μM) to block α2- and β-adrenoceptors, respectively in order to minimize the involvement of these adrenoceptors in the response to noradrenaline.
Data are means ± S.E.M. of at least 4 separate experiments. To establish Hill slopes for the agonist concentration–response curves and calculate EC50 values, curves were fitted to all the data by non-linear regression. The EC50 value in the presence and absence of antagonists was used to ascertain the concentration ratio (CR). Schild analysis was performed.

[3] = test system: normal ECG in rats; assay: The effect on normal electrocardiogram in rats; assay type: in vivo, rat; conditions: anesthetized rats
Protocol: The experiment was carried out to exclude the influence of tested compounds on normal ECG. […] The influence on QRS complex, PQ interval, heart rate (RR), and QTc interval was determined.

[4] = test system: blood pressure in normotensive rats; assay: Influence on blood pressure in normotensive rats; assay type: in vivo, rat; parameters: Systolic pressure / Diastolic pressure: unit not given beside the values; conditions: for Diastolic pressure / Systolic pressure: anesthetized normotensive rats
Protocol: The tested compounds were administered i.p. after 15 min of stabilization period. The compounds were administered at the dose 10 mg/kg.

[5] = i.p. at ED84, 0 min (initial values)
[6] = lowest hypotensive dose i.p., 5 min
[7] = lowest hypotensive dose i.p., 10 min
[8] = lowest hypotensive dose i.p., 20 min
[9] = lowest hypotensive dose i.p., 30 min
[10] = lowest hypotensive dose i.p., 40 min
[11] = lowest hypotensive dose i.p., 50 min
[12] = lowest hypotensive dose i.p., 60 min
[13] = lowest hypotensive dose i.p., Control (before administration)
[14] = normotensive rats, lowest hypotensive dose i.p., period of significant effect

T1 sequence (P18090 whole entry): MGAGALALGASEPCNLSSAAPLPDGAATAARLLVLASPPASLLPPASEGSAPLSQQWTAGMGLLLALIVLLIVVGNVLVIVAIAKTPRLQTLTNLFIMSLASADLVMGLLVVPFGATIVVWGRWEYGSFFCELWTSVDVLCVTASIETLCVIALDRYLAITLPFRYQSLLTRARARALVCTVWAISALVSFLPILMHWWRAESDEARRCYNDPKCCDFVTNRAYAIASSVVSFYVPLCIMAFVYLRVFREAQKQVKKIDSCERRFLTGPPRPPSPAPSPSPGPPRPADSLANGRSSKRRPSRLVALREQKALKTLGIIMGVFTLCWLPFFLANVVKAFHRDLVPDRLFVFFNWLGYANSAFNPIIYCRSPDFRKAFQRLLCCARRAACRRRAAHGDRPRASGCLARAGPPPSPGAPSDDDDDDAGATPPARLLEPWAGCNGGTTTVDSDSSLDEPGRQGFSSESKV

## COc1ccccc1N1CCN(CCCOc2cc(C)ccc2Cl)CC1 [HBK-16, 1N-[3-(2-chloro-5-methylphenoxy)propyl]-4N-(2-methoxyphenyl)piperazine hydrochloride]
[1]
  Ki: > 10000 nM
[2]
  Schild slope ± S.E.M., α1A: 1.06 ± 0.08
[2]; read-out: pA2 ± S.E.M., α1A (converted)
  Kb: 1.78 nM
[3]; i.p. at ED84
  influence on ECG parameters (PQ interval, QRS complex, QTc interval): did not influence PQ interval, QRS complex or QTc interval
[3]; i.p. at ED84, over the period of significant effect vs. initial values
  reduction of heart rate: 11−13%
[3]; [5]
  Beats/min (ECG): 329.6 ± 9.8 Beats/min
  PQ (ECG): 64.4 ± 1.1 ms
  QRS (ECG): 21.7 ± 2.2 ms
  QT (ECG): 51.4 ± 3.5 ms
  QTc (ECG, Bazett): 120.5 ± 8.7 ms
[3]; i.p. at ED84, 5 min
  Beats/min (ECG): 331.4 ± 12.5 Beats/min
  PQ (ECG): 63.7 ± 1.1 ms
  QRS (ECG): 21.7 ± 2.2 ms
  QT (ECG): 51.2 ± 3.5 ms
  QTc (ECG, Bazett): 120.7 ± 9.7 ms
[3]; i.p. at ED84, 10 min
  Beats/min (ECG): 330.1 ± 12.4 Beats/min
  PQ (ECG): 63.6 ± 0.9 ms
  QRS (ECG): 21.7 ± 2.2 ms
  QT (ECG): 51.2 ± 3.3 ms
  QTc (ECG, Bazett): 120.2 ± 8.8 ms
[3]; i.p. at ED84, 15 min
  Beats/min (ECG): 319.4 ± 10.3 Beats/min
  PQ (ECG): 63.9 ± 1.1 ms
  QRS (ECG): 21.7 ± 2.2 ms
  QT (ECG): 50.1 ± 3.6 ms
  QTc (ECG, Bazett): 115.8 ± 9.6 ms
[3]; i.p. at ED84, 20 min
  Beats/min (ECG): 310.6 ± 9.8 Beats/min
  PQ (ECG): 65.1 ± 1.2 ms
  QRS (ECG): 21.7 ± 2.2 ms
  QT (ECG): 51.4 ± 3.1 ms
  QTc (ECG, Bazett): 117.3 ± 8.7 ms
[3]; i.p. at ED84, 30 min
  Beats/min (ECG): 302.8 ± 11.0 Beats/min
  PQ (ECG): 64.4 ± 1.1 ms
  QRS (ECG): 21.7 ± 2.2 ms
  QT (ECG): 52.7 ± 3.7 ms
  QTc (ECG, Bazett): 119.0 ± 10.3 ms
[3]; i.p. at ED84, 40 min
  Beats/min (ECG): 294.1 ± 12.2^a Beats/min
  PQ (ECG): 65.9 ± 0.8 ms
  QRS (ECG): 21.7 ± 2.2 ms
  QT (ECG): 53.5 ± 2.8 ms
  QTc (ECG, Bazett): 118.9 ± 8.4 ms
[3]; i.p. at ED84, 50 min
  Beats/min (ECG): 291.4 ± 13.0^b Beats/min
  PQ (ECG): 67.3 ± 1.6 ms
  QRS (ECG): 22.0 ± 2.1 ms
  QT (ECG): 54.7 ± 2.8 ms
  QTc (ECG, Bazett): 121.1 ± 8.7 ms
[3]; i.p. at ED84, 60 min
  Beats/min (ECG): 288.0 ± 13.8^b Beats/min
  PQ (ECG): 68.2 ± 0.9 ms
  QRS (ECG): 22.3 ± 2.0 ms
  QT (ECG): 55.5 ± 2.4 ms
  QTc (ECG, Bazett): 122.0 ± 7.7 ms
[4]; [6]
  Diastolic pressure: 95.0 ± 5.1
  Systolic pressure: 123.2 ± 3.3
[4]; [7]
  Diastolic pressure: 93.7 ± 5.1
  Systolic pressure: 121.2 ± 3.2
[4]; [8]
  Diastolic pressure: 91.3 ± 5.0^b
  Systolic pressure: 114.8 ± 2.0^b
[4]; [9]
  Diastolic pressure: 89.8 ± 5.2^a
  Systolic pressure: 113.0 ± 2.4^c
[4]; [10]
  Diastolic pressure: 87.7 ± 4.7^b
  Systolic pressure: 110.3 ± 2.1^c
[4]; [11]
  Diastolic pressure: 88.0 ± 4.3^c
  Systolic pressure: 110.8 ± 2.0^b
[4]; [12]
  Diastolic pressure: 87.7 ± 4.6^b
  Systolic pressure: 110.7 ± 1.9^c
[4]; [13]
  Diastolic pressure: 97.0 ± 4.3
  Systolic pressure: 124.7 ± 3.1
[4]; normotensive rats, lowest dose significantly lowering systolic and diastolic blood pressure
  lowest hypotensive dose: 0.1 mg/kg
[4]; [14]
  reduction of diastolic blood pressure: 6−10%
  reduction of systolic blood pressure: 8−11%
